From ChEMBL document CHEMBL1201862, “PubChem BioAssay data set” (2004)
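Method: 48-hour compound exposure of cells in 96-well plates, five concentrations, linear interpolation of endpoints. GI50 is the concentration that inhibits growth by half.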 Active and inactive are the calls of the source. Cut-off read from the data, not from the text of the source: active = GI50 up to about 1.1 µM and inactive = higher.

What was measured:
Test in all cases: NCI anticancer screen, dose series, 48 h
[1] = test system: LOX IMVI
[2] = test system: MDA-N
[3] = test system: M14
[4] = test system: A498
[5] = test system: CCRF-CEM
[6] = test system: MDA-MB-435
[7] = test system: HCC 2998
[8] = test system: OVCAR-5
[9] = test system: HCT-116
[10] = test system: SK-MEL-2
[11] = test system: EKVX
[12] = test system: SF-295
[13] = test system: NCI/ADR-RES
[14] = test system: K562
[15] = test system: NCI-H522
[16] = test system: OVCAR-4
[17] = test system: TK-10
[18] = test system: NCI-H23
[19] = test system: ACHN
[20] = test system: A549
[21] = test system: MCF7
[22] = test system: PC-3
[23] = test system: SNB-19
[24] = test system: SK-MEL-5
[25] = test system: MOLT-4
[26] = test system: HL-60
[27] = test system: IGROV-1
[28] = test system: SW-620
[29] = test system: HCT-15
[30] = test system: NCI-H226
[31] = test system: UACC-62
[32] = test system: 786-0
[33] = test system: SK-MEL-28
[34] = test system: SN12C
[35] = test system: SF-268
[36] = test system: HOP-92
[37] = test system: RPMI-8226
[38] = test system: U-251
[39] = test system: OVCAR-3
[40] = test system: SNB-75
[41] = test system: Hs-578T
[42] = test system: T47D
[43] = test system: KM12
[44] = test system: UO-31
[45] = test system: NCI-H460
[46] = test system: UACC-257
[47] = test system: MDA-MB-231
[48] = test system: HT-29
[49] = test system: SK-OV-3
[50] = test system: OVCAR-8
[51] = test system: DU-145
[52] = test system: Malme-3M
[53] = test system: SF-539
[54] = test system: COLO 205
[55] = test system: BT-549
[56] = test system: CAKI-1
[57] = test system: SR
[58] = test system: RXF 393
[59] = test system: HOP-62

Which results are given for `C[C@@H]1C[C@@]2(O[C@@H]2C)C(=O)O[C@@H]2CCN3CC=C(COC(=O)[C@]1(C)O)[C@H]23`?
GI50 [1]: > 100 µM (inactive); GI50 [2]: > 100 µM (inactive); GI50 [3]: > 100 µM (inactive); GI50 [4]: > 100 µM (inactive); GI50 [5]: > 100 µM (inactive); GI50 [6]: > 100 µM (inactive); GI50 [7]: > 100 µM (inactive); GI50 [8]: > 100 µM (inactive); GI50 [9]: > 100 µM (inactive); GI50 [10]: > 100 µM (inactive); GI50 [11]: > 100 µM (inactive); GI50 [12]: > 100 µM (inactive); GI50 [13]: > 100 µM (inactive); GI50 [14]: > 100 µM (inactive); GI50 [15]: > 100 µM (inactive); GI50 [16]: > 100 µM (inactive); GI50 [17]: > 100 µM (inactive); GI50 [18]: > 100 µM (inactive); GI50 [19]: > 100 µM (inactive); GI50 [20]: > 100 µM (inactive); GI50 [21]: > 100 µM (inactive); GI50 [22]: > 100 µM (inactive); GI50 [23]: > 100 µM (inactive); GI50 [24]: > 100 µM (inactive); GI50 [25]: > 100 µM (inactive); GI50 [26]: > 100 µM (inactive); GI50 [27]: > 100 µM (inactive); GI50 [28]: > 100 µM (inactive); GI50 [29]: > 100 µM; GI50 [30]: > 100 µM (inactive); GI50 [31]: > 100 µM (inactive); GI50 [32]: > 100 µM (inactive); GI50 [33]: > 100 µM (inactive); GI50 [34]: > 100 µM (inactive); GI50 [35]: > 100 µM (inactive); GI50 [36]: 10.7 µM (inactive); GI50 [37]: > 100 µM (inactive); GI50 [38]: > 100 µM (inactive); GI50 [39]: > 100 µM (inactive); GI50 [40]: > 100 µM (inactive); GI50 [41]: > 100 µM (inactive); GI50 [42]: > 100 µM (inactive); GI50 [43]: > 100 µM (inactive); GI50 [44]: > 100 µM (inactive); GI50 [45]: > 100 µM (inactive); GI50 [46]: > 100 µM (inactive); GI50 [47]: > 100 µM (inactive); GI50 [48]: > 100 µM (inactive); GI50 [49]: > 100 µM (inactive); GI50 [50]: > 100 µM (inactive); GI50 [51]: > 100 µM (inactive); GI50 [52]: > 100 µM (inactive); GI50 [53]: > 100 µM (inactive); GI50 [54]: > 100 µM (inactive); GI50 [55]: > 100 µM (inactive); GI50 [56]: > 100 µM (inactive)

What does the source list for `COc1ccc(/C=C/C(=O)C(C)(C)Br)cc1`?
GI50 [1]: 7.33 µM (inactive); GI50 [2]: 7.57 µM (inactive); GI50 [3]: 1.56 µM (inactive); GI50 [4]: 20 µM (inactive); GI50 [5]: 1.59 µM (inactive); GI50 [6]: 11.5 µM (inactive); GI50 [8]: 12 µM (inactive); GI50 [9]: 2.19 µM (inactive); GI50 [10]: 12.2 µM (inactive); GI50 [11]: 15.1 µM (inactive); GI50 [12]: 17.9 µM (inactive); GI50 [13]: 24 µM (inactive); GI50 [14]: 4.61 µM (inactive); GI50 [15]: 1.22 µM (inactive); GI50 [17]: 14.6 µM (inactive); GI50 [18]: 2.25 µM (inactive); GI50 [19]: 8.55 µM (inactive); GI50 [20]: 20.3 µM (inactive); GI50 [21]: 5.11 µM (inactive); GI50 [22]: 11.7 µM (inactive); GI50 [23]: 25.8 µM (inactive); GI50 [24]: 14.7 µM (inactive); GI50 [25]: 3.86 µM (inactive); GI50 [26]: 19.5 µM (inactive); GI50 [27]: 1.71 µM (inactive); GI50 [28]: 2.43 µM (inactive); GI50 [29]: 2.62 µM; GI50 [31]: 12.7 µM (inactive); GI50 [32]: 3.48 µM (inactive); GI50 [34]: 4.95 µM (inactive); GI50 [35]: 15.2 µM (inactive); GI50 [36]: 11.8 µM (inactive); GI50 [37]: 3.42 µM (inactive); GI50 [38]: 13.7 µM (inactive); GI50 [39]: 17.5 µM (inactive); GI50 [41]: 16.3 µM (inactive); GI50 [42]: 20.8 µM (inactive); GI50 [43]: 16.1 µM (inactive); GI50 [57]: 3.3 µM (inactive); GI50 [44]: 4.27 µM (inactive); GI50 [45]: 18.9 µM (inactive); GI50 [46]: 15.5 µM (inactive); GI50 [47]: 20 µM (inactive); GI50 [49]: 22.2 µM (inactive); GI50 [50]: 3.04 µM (inactive); GI50 [51]: 14.3 µM (inactive); GI50 [52]: 13.5 µM (inactive); GI50 [53]: 17.1 µM (inactive); GI50 [58]: 1.4 µM (inactive); GI50 [54]: 15 µM (inactive); GI50 [55]: 1.92 µM (inactive); GI50 [56]: 17.4 µM (inactive); GI50 [59]: 6.3 µM (inactive)
